{"source": "paper PMC10805714", "about": "“Functionally-selective inhibition of threshold sodium currents and excitability in dorsal root ganglion neurons by cannabinol” (Communications Biology, 2024)", "key": {"[1]": {"biological_target": "T1, Nav1.7 (Homo sapiens, UniProt Q15858)", "T1 construct": "gene SCN9A; human Nav1.7 stably expressed in HEK293 cells; with SCN1B (human, co-transfected)", "T1 sequence (Q15858 whole entry)": "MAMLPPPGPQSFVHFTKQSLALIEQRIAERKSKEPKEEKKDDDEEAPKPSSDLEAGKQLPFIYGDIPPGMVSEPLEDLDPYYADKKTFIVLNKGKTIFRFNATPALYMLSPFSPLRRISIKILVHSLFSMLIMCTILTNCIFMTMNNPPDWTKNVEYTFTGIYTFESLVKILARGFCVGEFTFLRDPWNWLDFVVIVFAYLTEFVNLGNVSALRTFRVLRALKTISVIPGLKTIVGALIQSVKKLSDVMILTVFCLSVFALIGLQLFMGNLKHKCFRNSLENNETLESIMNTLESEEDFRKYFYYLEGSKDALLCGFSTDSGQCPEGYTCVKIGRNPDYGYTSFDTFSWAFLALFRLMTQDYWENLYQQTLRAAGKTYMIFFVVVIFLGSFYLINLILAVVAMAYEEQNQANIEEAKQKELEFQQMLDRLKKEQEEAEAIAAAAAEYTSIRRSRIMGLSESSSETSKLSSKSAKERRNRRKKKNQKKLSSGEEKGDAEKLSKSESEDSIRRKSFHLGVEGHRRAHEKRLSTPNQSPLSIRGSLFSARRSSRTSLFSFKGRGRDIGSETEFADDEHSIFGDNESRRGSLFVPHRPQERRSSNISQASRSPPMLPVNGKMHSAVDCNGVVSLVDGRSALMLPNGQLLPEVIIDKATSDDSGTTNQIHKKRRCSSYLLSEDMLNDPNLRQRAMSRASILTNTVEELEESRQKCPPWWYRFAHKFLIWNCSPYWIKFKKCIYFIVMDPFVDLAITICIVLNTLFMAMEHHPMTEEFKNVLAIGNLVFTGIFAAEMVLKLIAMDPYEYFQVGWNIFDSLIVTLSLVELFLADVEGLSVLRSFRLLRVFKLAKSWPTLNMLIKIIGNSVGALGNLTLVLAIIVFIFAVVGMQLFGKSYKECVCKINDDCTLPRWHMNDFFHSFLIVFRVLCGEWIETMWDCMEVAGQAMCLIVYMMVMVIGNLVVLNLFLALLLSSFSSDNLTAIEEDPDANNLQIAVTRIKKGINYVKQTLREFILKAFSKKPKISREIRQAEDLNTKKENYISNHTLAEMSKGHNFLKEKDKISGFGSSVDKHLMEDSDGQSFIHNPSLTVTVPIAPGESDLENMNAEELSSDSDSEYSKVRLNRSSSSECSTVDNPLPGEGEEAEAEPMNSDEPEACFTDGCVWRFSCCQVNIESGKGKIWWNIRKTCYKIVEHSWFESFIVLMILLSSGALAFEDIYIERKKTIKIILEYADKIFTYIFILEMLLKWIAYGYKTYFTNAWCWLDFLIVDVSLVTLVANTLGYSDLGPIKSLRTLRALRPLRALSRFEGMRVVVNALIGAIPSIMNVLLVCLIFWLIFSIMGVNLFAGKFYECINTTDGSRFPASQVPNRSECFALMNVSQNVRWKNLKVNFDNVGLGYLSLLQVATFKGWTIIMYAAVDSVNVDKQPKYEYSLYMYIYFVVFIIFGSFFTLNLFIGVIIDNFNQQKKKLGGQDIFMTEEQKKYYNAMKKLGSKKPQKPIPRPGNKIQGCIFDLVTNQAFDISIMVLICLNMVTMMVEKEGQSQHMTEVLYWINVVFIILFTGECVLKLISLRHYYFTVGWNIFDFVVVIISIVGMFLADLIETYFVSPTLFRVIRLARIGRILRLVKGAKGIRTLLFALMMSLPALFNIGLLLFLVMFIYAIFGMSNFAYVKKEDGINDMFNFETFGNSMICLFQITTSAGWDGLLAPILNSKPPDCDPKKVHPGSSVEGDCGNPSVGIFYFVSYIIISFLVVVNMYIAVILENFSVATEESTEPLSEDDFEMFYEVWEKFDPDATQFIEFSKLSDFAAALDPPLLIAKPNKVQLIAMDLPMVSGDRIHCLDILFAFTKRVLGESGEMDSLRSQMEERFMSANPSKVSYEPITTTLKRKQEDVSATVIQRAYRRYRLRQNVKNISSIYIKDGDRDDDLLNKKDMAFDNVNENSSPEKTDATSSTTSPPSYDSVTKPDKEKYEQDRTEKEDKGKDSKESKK", "T1 sequence (Q07699 19-218 partner)": "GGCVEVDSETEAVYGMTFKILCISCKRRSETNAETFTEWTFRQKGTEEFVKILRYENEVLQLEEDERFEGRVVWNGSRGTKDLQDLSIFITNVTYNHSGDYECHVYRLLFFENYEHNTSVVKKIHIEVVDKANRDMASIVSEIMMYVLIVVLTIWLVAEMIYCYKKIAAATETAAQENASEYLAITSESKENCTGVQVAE", "experiment": "automated whole-cell patch-clamp (Qube-384), IC50 at -90 mV holding-potential", "assay_type": "cell-based"}, "[2]": {"biological_target": "T2, Nav1.7-P610T (Homo sapiens, UniProt Q15858, P610T)", "T2 construct": "gene SCN9A; P610T plasmid transfected in HEK293 cells", "T2 sequence (Q15858 whole entry P610T)": "as the sequence (Q15858 whole entry) above, with P610T counted along it", "experiment": "automated patch-clamp, steady-state inactivation shift with […] s pre-pulse", "assay_type": "cell-based"}}, "data": [{"smiles": "CCCCCc1cc(O)c2c(c1)OC(C)(C)c1ccc(C)cc1-2", "note": "[CBN, Cannabinol]", "values": [{"measurement": "IC50", "setting": "[1]", "value": 10.7, "unit": "µM"}, {"measurement": "automated patch-clamp, steady-state inactivation shift with 5 s pre-pulse", "setting": "[2]", "value": "CBN hyperpolarized the SSI curves in both WT and P610T (Fig. S1)"}]}]}
